Reference: patent publication US20200095223A1, “NOVEL TRIAZOLETHIONE DERIVATIVES” (priority 2017, published 2020)

Assay: Log P by HPLC on reversed phase columns (EEC directive 79/831 Annex V.A8)
Type: physicochemical
Conditions: reversed phase HPLC column; method [a]: LC-UV, acidic range, 0.1% formic acid in water and acetonitrile as eluent
Experimental: Log P values: […] If more than one Log P value is available within the same method, all the values are given and separated by “+”. Calibration was done with straight-chain alkan2-ones (with 3 to 16 carbon atoms) with known Log P values (measurement of Log P values using retention times with linear interpolation between successive alkanones). Lambda-max-values were determined using UV-spectra from 200 nm to 400 nm and the peak values of the chromatographic signals.

Row | Structure (SMILES) | chromatographic logP
1 | CC(O)(Cn1nc[nH]c1=S)c1ccc(Oc2ccc(Br)cc2)nc1C(F)(F)F (centres unmarked) [I-S-01, 2-[2-[6-(4-bromophenoxy)-2-(trifluoromethyl)-3-pyridyl]-2-hydroxy-propyl]-4H-1,2,4-triazole-3-thione] | 3.21
2 | CC(O)(Cn1nc[nH]c1=S)c1ccc(Oc2ccc(Cl)cc2)nc1C(F)(F)F (centres unmarked) [I-S-03, 2-[2-[6-(4-chlorophenoxy)-2-(trifluoromethyl)-3-pyridyl]-2-hydroxy-propyl]-4H-1,2,4-triazole-3-thione] | 3.11
3 | OC(Cn1nc[nH]c1=S)(c1ccc(Oc2ccc(Br)cc2)nc1C(F)(F)F)C1CC1 (centres unmarked) [I-S-04, 2-[2-[6-(4-bromophenoxy)-2-(trifluoromethyl)-3-pyridyl]-2-cyclopropyl-2-hydroxy-ethyl]-4H-1,2,4-triazole-3-thione] | 3.87

More lines, now with the values ahead:

Row | chromatographic logP | Structure (SMILES)
4 | 2.66 | CC(O)(Cn1nc[nH]c1=S)c1ccc(Oc2ccccc2)nc1C(F)(F)F (centres unmarked) [I-S-02, 2-[2-hydroxy-2-[6-phenoxy-2-(trifluoromethyl)-3-pyridyl]propyl]-4H-1,2,4-triazole-3-thione]
5 | 3.27 | OC(Cn1nc[nH]c1=S)(c1ccc(Oc2ccccc2)nc1C(F)(F)F)C1CC1 (centres unmarked) [I-S-06, 2-[2-cyclopropyl-2-hydroxy-2-[6-phenoxy-2-(trifluoromethyl)-3-pyridyl]ethyl]-4H-1,2,4-triazole-3-thione]
